According to patent US11197878B2, “Anti-inflammatory composition including novel quercetin-based compound” (AMOREPACIFIC CORPORATION, priority 2017, dated 2021):

Experiments:
[1] = tested on: PGE2 (Prostaglandin E2); experiment: Test for inhibiting generation of PGE2 in H2O2-stimulated fibroblast (ELISA); format: cell-based
Procedure: Fibroblast (PromoCell, Germany) was inoculated in a 6-well culturing plate at a concentration of 1×10^5 cells, and cultured in a 5% CO2 incubator at 37° C. for 24 hours. The well was treated with H2O2 500 μM and stimulated for 24 hours, and then were treated with quercetin3-O-[3-O″-(E)-p-coumaroyl][β-D-glucopyranosyl-(1→3)-O-α-L-rhamnopyranosyl-(1→6)-O-β-D-glucopyranoside] (‘New Material 31’) and quercetin3-O-[3-O″-(E)-p-coumaroyl][α-L-rhamnopyranosyl-(1→6)-O-β-D-glucopyranoside]) (‘New Material 32’) at a concentration of 100 μg/ml, respectively, and reacted for 48 hours. After the reaction was finished, the culture medium was collected and the ELISA analysis was performed. Herein, α-bisabolol, which is the material typically used as an anti-inflammatory agent and abirritant, was used as a control. As PGE2, a kit of Assay Design® was used, and as IL-6 and IL-8, a kit of Endogen® was used, and the test was carried out according to the methods prescribed in the manuals of the respective companies. (‘31’ refers to New Material 31, and ‘32’ refers to New Material 32) Inhibition effect={1−(test sample−control)/(H2O2−control)}×100 <Equation 1>

[2] = tested on: skin; experiment: Test for skin accumulated stimulus, HRIPT (Human repeated insult patch tests); format: in vivo; conditions: for Number of examinees who exhibited ±, +, or ++ reactivity, 1st: 1st patch; for Number of examinees who exhibited ±, +, or ++ reactivity, 2nd: 2nd patch; for Number of examinees who exhibited ±, +, or ++ reactivity, 3rd: 3rd patch; for Number of examinees who exhibited ±, +, or ++ reactivity, 4th: 4th patch; for Number of examinees who exhibited ±, +, or ++ reactivity, 5th: 5th patch; for Number of examinees who exhibited ±, +, or ++ reactivity, 6th: 6th patch; for Number of examinees who exhibited ±, +, or ++ reactivity, 7th: 7th patch; for Number of examinees who exhibited ±, +, or ++ reactivity, 8th: 8th patch; for Number of examinees who exhibited ±, +, or ++ reactivity, 9th: 9th patch
Procedure: HRIPT (Human repeated insult patch tests) was conducted in order to identify skin accumulated stimulus of quercetin3-O-[3-O″-(E)-p-coumaroyl][β-D-glucopyranosyl-(1→3)-O-α-L-rhamnopyranosyl-(1→6)-O-β-D-glucopyranoside] and quercetin3-O-[3-O″-(E)-p-coumaroyl][α-L-rhamnopyranosyl-(1→6)-O-β-D-glucopyranoside] and to calculate the concentration range that can be used in skin. Specifically, 15 healthy adult examinees were randomly selected, and test compositions in which the compounds were respectively comprised in an amount of 0.5 wt. %, 1 wt. %, and 3 wt. % (the compositions for skin, comprising an emulsifying agent, a stabilizer, purified water, etc. in addition to the compounds) were dropped in the amount of 20 μl per chamber (IQ chamber, Epitest Ltd, Finland), and patched on the right site of the upper back of the examinees, and then, after 24 hours, the patch was replaced with a new patch. A total of 9 patches were conducted, three times a week for total 3 weeks, in such manner, the skin reactions before and after patch were examined every time, and the skin reactions until 48 hours after removing the final patch were observed, and the average reactivity was observed. The skin reaction was determined according to the criteria of International Contact Dermatitis Research Group (ICDRG). In the above table, “New Material 31” refers to quercetin3-O-[3-O″-(E)-p-coumaroyl][β-D-glucopyranosyl-(1→3)-O-α-L-rhamnopyranosyl-(1→6)-O-β-D-glucopyranoside], and “New Material 32” refers to quercetin3-O-[3-O″-(E)-p-coumaroyl][α-L-rhamnopyranosyl-(1→6)-O-β-D-glucopyranoside].

**Q.** How did the inhibition at 100 µg/mL ([1]; Fibroblast, 100 μg/ml, {1−(test sample−control)/(H2O2−control)}×100, read-out: Inhibition effect according to Equation 1, PGE2) turn out when `C[C@@H]1O[C@@H](OC[C@H]2O[C@@H](Oc3c(-c4ccc(O)c(O)c4)oc4cc(O)cc(O)c4c3=O)[C@H](O)[C@@H](OC(=O)/C=C/c3ccc(O)cc3)[C@@H]2O)[C@H](O)[C@H](O[C@@H]2O[C@H](CO)[C@@H](O)[C@H](O)[C@H]2O)[C@H]1O` [New Material 31, quercetin3-O-[3-O″-(E)-p-coumaroyl][β-D-glucopyranosyl-(1→3)-O-α-L-rhamnopyranosyl-(1→6)-O-β-D-glucopyranoside]] was run?
**A.** 51.7%

**Q.** What about the PGE2 ([1]; fibroblast culture medium, H2O2 500 μM 24 hours, then test material (31, 32: 100 μg/ml) 48 hours, ELISA) of the same compound?
**A.** 275 pg/mL

**Q.** And the “Number of examinees who exhibited ±, +, or ++ reactivity, 1st” value (from here on “Number of examinees who exhibited ± … 1st”) ([2]; 0.5 wt. %, line 1 of 3 (±))?
**A.** 0 number

**Q.** And the “Number of examinees who exhibited ± … 1st” value ([2]; 0.5 wt. %, line 2 of 3 (+))?
**A.** 0 number

**Q.** What about the “Number of examinees who exhibited ± … 1st” value ([2]; 0.5 wt. %, line 3 of 3 (++)) of the same compound?
**A.** 0 number

**Q.** What about the “Number of examinees who exhibited ±, +, or ++ reactivity, 2nd” value (shortened to “Number of examinees who exhibited ± … 2nd”) ([2]; 0.5 wt. %, line 1 of 3 (±)) of the same compound?
**A.** 0 number

**Q.** And the “Number of examinees who exhibited ± … 2nd” value ([2]; 0.5 wt. %, line 2 of 3 (+))?
**A.** 0 number

**Q.** What about the “Number of examinees who exhibited ± … 2nd” value ([2]; 0.5 wt. %, line 3 of 3 (++)) of the same compound?
**A.** 0 number

**Q.** And the “Number of examinees who exhibited ±, +, or ++ reactivity, 3rd” value (“Number of examinees who exhibited ± … 3rd” below) ([2]; 0.5 wt. %, line 1 of 3 (±))?
**A.** 0 number

**Q.** And the “Number of examinees who exhibited ± … 3rd” value ([2]; 0.5 wt. %, line 2 of 3 (+))?
**A.** 0 number

**Q.** What about the “Number of examinees who exhibited ± … 3rd” value ([2]; 0.5 wt. %, line 3 of 3 (++)) of the same compound?
**A.** 0 number

**Q.** And the “Number of examinees who exhibited ±, +, or ++ reactivity, 4th” value (from here on “Number of examinees who exhibited ± … 4th”) ([2]; 0.5 wt. %, line 1 of 3 (±))?
**A.** 0 number

**Q.** What about the “Number of examinees who exhibited ± … 4th” value ([2]; 0.5 wt. %, line 2 of 3 (+)) of the same compound?
**A.** 0 number

**Q.** And the “Number of examinees who exhibited ± … 4th” value ([2]; 0.5 wt. %, line 3 of 3 (++))?
**A.** 0 number

**Q.** What about the “Number of examinees who exhibited ±, +, or ++ reactivity, 5th” value (shortened to “Number of examinees who exhibited ± … 5th”) ([2]; 0.5 wt. %, line 1 of 3 (±)) of the same compound?
**A.** 0 number

**Q.** And the “Number of examinees who exhibited ± … 5th” value ([2]; 0.5 wt. %, line 2 of 3 (+))?
**A.** 0 number

**Q.** What about the “Number of examinees who exhibited ± … 5th” value ([2]; 0.5 wt. %, line 3 of 3 (++)) of the same compound?
**A.** 0 number

**Q.** What about the “Number of examinees who exhibited ±, +, or ++ reactivity, 6th” value (“Number of examinees who exhibited ± … 6th” for short) ([2]; 0.5 wt. %, line 1 of 3 (±)) of the same compound?
**A.** 0 number

**Q.** What about the “Number of examinees who exhibited ± … 6th” value ([2]; 0.5 wt. %, line 2 of 3 (+)) of the same compound?
**A.** 0 number

**Q.** And the “Number of examinees who exhibited ± … 6th” value ([2]; 0.5 wt. %, line 3 of 3 (++))?
**A.** 0 number

**Q.** And the “Number of examinees who exhibited ±, +, or ++ reactivity, 7th” value (from here on “Number of examinees who exhibited ± … 7th”) ([2]; 0.5 wt. %, line 1 of 3 (±))?
**A.** 0 number

**Q.** What about the “Number of examinees who exhibited ± … 7th” value ([2]; 0.5 wt. %, line 2 of 3 (+)) of the same compound?
**A.** 0 number

**Q.** What about the “Number of examinees who exhibited ± … 7th” value ([2]; 0.5 wt. %, line 3 of 3 (++)) of the same compound?
**A.** 0 number

**Q.** What about the “Number of examinees who exhibited ±, +, or ++ reactivity, 8th” value (from here on “Number of examinees who exhibited ± … 8th”) ([2]; 0.5 wt. %, line 1 of 3 (±)) of the same compound?
**A.** 0 number

**Q.** And the “Number of examinees who exhibited ± … 8th” value ([2]; 0.5 wt. %, line 2 of 3 (+))?
**A.** 0 number

**Q.** What about the “Number of examinees who exhibited ± … 8th” value ([2]; 0.5 wt. %, line 3 of 3 (++)) of the same compound?
**A.** 0 number

**Q.** What about the average reactivity ([2]; 0.5 wt. %, 9 patches over 3 weeks, 15 examinees, less than 3 is considered a stable composition) of the same compound?
**A.** 0

**Q.** And the “Number of examinees who exhibited ±, +, or ++ reactivity, 9th” value (from here on “Number of examinees who exhibited ± … 9th”) ([2]; 0.5 wt. %, line 1 of 3 (±))?
**A.** 0 number

**Q.** What about the “Number of examinees who exhibited ± … 9th” value ([2]; 0.5 wt. %, line 2 of 3 (+)) of the same compound?
**A.** 0 number

**Q.** And the “Number of examinees who exhibited ± … 9th” value ([2]; 0.5 wt. %, line 3 of 3 (++))?
**A.** 0 number

**Q.** And the “Number of examinees who exhibited ± … 1st” value ([2]; 1 wt. %, line 1 of 3 (±))?
**A.** 0 number

**Q.** And the “Number of examinees who exhibited ± … 1st” value ([2]; 1 wt. %, line 2 of 3 (+))?
**A.** 0 number

**Q.** What about the “Number of examinees who exhibited ± … 1st” value ([2]; 1 wt. %, line 3 of 3 (++)) of the same compound?
**A.** 0 number

**Q.** And the “Number of examinees who exhibited ± … 2nd” value ([2]; 1 wt. %, line 1 of 3 (±))?
**A.** 0 number

**Q.** What about the “Number of examinees who exhibited ± … 2nd” value ([2]; 1 wt. %, line 2 of 3 (+)) of the same compound?
**A.** 0 number

**Q.** What about the “Number of examinees who exhibited ± … 2nd” value ([2]; 1 wt. %, line 3 of 3 (++)) of the same compound?
**A.** 0 number

**Q.** What about the “Number of examinees who exhibited ± … 3rd” value ([2]; 1 wt. %, line 1 of 3 (±)) of the same compound?
**A.** 0 number

**Q.** And the “Number of examinees who exhibited ± … 3rd” value ([2]; 1 wt. %, line 2 of 3 (+))?
**A.** 0 number

**Q.** What about the “Number of examinees who exhibited ± … 3rd” value ([2]; 1 wt. %, line 3 of 3 (++)) of the same compound?
**A.** 0 number

**Q.** And the “Number of examinees who exhibited ± … 4th” value ([2]; 1 wt. %, line 1 of 3 (±))?
**A.** 0 number

**Q.** And the “Number of examinees who exhibited ± … 4th” value ([2]; 1 wt. %, line 2 of 3 (+))?
**A.** 0 number

**Q.** And the “Number of examinees who exhibited ± … 4th” value ([2]; 1 wt. %, line 3 of 3 (++))?
**A.** 0 number

**Q.** What about the “Number of examinees who exhibited ± … 5th” value ([2]; 1 wt. %, line 1 of 3 (±)) of the same compound?
**A.** 0 number

**Q.** What about the “Number of examinees who exhibited ± … 5th” value ([2]; 1 wt. %, line 2 of 3 (+)) of the same compound?
**A.** 0 number
